Measured values from publication PMC4287843 (ACS Chemical Biology, 2014).
Strand notation (5' to 3'): a small letter for the sugar, then the base; units joined by * are phosphorothioate-linked, units joined directly phosphodiester-linked; [ ] holds rarer units or linkages, { } end groups; capitals alone tell only the bases. m = 2'-O-methyl

What was measured:
[1] = test system: r(CGG)12-DGCR8Δ complex; settings: read-out: IC50 for disrupting binding of DGCR8Δ; in vitro; cited from earlier work
[2] = target: r(CGG) repeats; settings: cited from earlier work
[3] = test system: SMN2 mini-gene splicing in COS7 cells expressing r(CGG)60X; experiment: SMN2 alternative pre-mRNA splicing in FXTAS cell culture model; type: cell-based
[4] = target: T1, DGCR8Δ (UniProt Q8WYQ5 493-720); experiment: EMSA
T1 sequence: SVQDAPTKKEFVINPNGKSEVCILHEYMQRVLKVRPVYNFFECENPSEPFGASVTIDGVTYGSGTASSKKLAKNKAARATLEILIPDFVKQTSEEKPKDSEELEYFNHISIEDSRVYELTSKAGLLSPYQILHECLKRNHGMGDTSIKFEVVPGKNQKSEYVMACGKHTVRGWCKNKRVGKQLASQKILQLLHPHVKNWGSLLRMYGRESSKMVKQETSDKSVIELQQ

[5] = target: T1, DGCR8Δ; experiment: TR-FRET

Molecule: Cc1c2cc[n+](CCN3CCCCC3)cc2c(C)c2c1[nH]c1ccc(O)cc12 [1a, 9-hydroxy-5,11-dimethyl-2-(2-(piperidin-1-yl)ethyl)-6H-pyrido[4,3-b]carbazol-2-ium]
- IC50 [1]: 13 ± 0.4 µM
- Kd [2]: 0.076 ± 0.004 µM
- fold less potent than 2H-5 for improving pre-mRNA splicing defects [3]: ~10 fold

Molecule: 2’OMe-PS-(CUGCGCGUAUUAGUCUACAAGUAAGGGCU-ACGACCU) (mC*mU*mG*mC*mG*mC*mG*mU*mA*mU*mU*mA*mG*mU*mC*mU*mA*mC*mA*mA*mG*mU*mA*mA*mG*mG*mG*mC*mU*mA*mC*mG*mA*mC*mC*mU) [scrambled oligonucleotide]
- effect on SMN2 splicing defect ([3]; 100 and 500 nM oligo (not 4 or 20 nM)): exacerbates splicing defects

B1: d(CCG)8 (ssDNA)
DNA: CCGCCGCCGCCGCCGCCGCCGCCG
- binding result [4]: no binding

B2: d(CCG)12 (ssDNA)
DNA: CCGCCGCCGCCGCCGCCGCCGCCGCCGCCGCCGCCG
- binding result [4]: no binding

B3: r(CGG)12 (structured_RNA)
RNA: CGGCGGCGGCGGCGGCGGCGGCGGCGGCGGCGGCGG
- binding result [5]: binds
